Measurements taken from patent publication US20200361871A1 (Enterprise Therapeutics Ltd., priority 2018, published 2020).

Biological target: human TMEM16A (TMEM16Aabc variant) (Homo sapiens, UniProt Q5XXA6, DEL476-501, form not given)
Experiment: Automated whole-cell patch clamp (Qpatch) TMEM16A potentiator assay in FRT cells stably expressing human TMEM16A
Format: cell-based
Conditions: for % Potentiation @ 3.33 μM Avg: 3.33 μM solution of test compound, percentage increase of baseline TMEM16A current; for EC50: calculated EC50, Qpatch TMEM16A current at +70 mV
Method in brief: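 FRT cells stably expressing human TMEM16Aabc were recorded by automated whole-cell patch clamp, with intracellular Ca2+ buffered for ~EC20 activation, holding −70 mV and step to +70 mV at 0.05 Hz. Compound was applied cumulatively, 5 min per concentration. Peak current increase as % of baseline was fitted to give EC50 and maximum efficacy.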

human TMEM16A (TMEM16Aabc variant), sequence (Q5XXA6 with tags, fused parts or gaps DEL476-501): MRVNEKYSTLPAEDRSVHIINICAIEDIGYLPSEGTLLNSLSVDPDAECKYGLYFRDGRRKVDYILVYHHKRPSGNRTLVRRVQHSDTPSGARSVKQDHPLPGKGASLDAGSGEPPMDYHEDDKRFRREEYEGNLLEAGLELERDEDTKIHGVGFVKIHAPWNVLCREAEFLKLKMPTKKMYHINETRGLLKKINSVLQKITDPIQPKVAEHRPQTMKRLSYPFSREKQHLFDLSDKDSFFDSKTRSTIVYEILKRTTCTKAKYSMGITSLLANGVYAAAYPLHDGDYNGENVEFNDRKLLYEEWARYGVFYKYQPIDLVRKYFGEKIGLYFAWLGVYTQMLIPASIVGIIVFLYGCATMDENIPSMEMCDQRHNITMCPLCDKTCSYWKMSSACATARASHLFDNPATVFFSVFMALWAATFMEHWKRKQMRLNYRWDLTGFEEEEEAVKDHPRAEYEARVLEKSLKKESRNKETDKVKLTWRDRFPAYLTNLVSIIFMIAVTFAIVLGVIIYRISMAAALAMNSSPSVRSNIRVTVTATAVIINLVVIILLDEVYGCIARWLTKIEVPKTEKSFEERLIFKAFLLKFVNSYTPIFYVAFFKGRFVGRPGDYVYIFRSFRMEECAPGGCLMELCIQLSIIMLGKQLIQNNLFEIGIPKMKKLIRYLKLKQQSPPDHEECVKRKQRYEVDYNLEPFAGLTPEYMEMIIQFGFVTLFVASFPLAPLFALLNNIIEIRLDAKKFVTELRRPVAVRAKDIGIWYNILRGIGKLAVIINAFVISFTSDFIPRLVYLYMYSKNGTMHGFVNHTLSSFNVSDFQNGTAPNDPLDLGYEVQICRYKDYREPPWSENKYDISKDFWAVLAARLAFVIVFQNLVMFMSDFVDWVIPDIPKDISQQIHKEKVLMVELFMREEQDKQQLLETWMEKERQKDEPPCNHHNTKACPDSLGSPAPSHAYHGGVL

Compound	% Potentiation @ 3.33 μM Avg [%]	EC50 [nM]
N#CC1(NC(=O)c2cc(NC(=O)Cc3cccc(Cl)c3)ccn2)CC1 [Example 23.1, 4-[[2-(3-Chlorophenyl)acetyl]amino]-N-(1-cyanocyclopropyl)pyridine-2-carboxamide]	150	
COc1ccc(Cl)c(CC(=O)Nc2ccnc(C(=O)NC3(C#N)CC3)c2)c1 [Example 24, 4-[[2-(2-Chloro-5-methoxy-phenyl)acetyl]amino]-N-(1-cyanocyclopropyl)pyridine-2-carboxamide]	68	
CC(C)(C)NC(=O)c1cc(NC(=O)Cc2cccc(O)c2)ccn1 [Example 3.12b, N-tert-Butyl-4-[[2-(3-hydroxyphenyl)acetyl]amino]pyridine-2-carboxamide]	143	340
CC(C)(C#N)NC(=O)c1cc(NC(=O)c2conc2-c2ccccc2)ccn1 [Example 83.20, N-[2-[(1-Cyano-1-methyl-ethyl)carbamoyl]-4-pyridyl]-3-phenyl-isoxazole-4-carboxamide]	9	
CC(C)(C)NC(=O)c1cc(NC(=O)Cc2cc(Cl)cc(Br)c2O)ccn1 [Example 59, 4-[[2-(3-Bromo-5-chloro-2-hydroxy-phenyl)acetyl]amino]-N-tert-butyl-pyridine-2-carboxamide]	175	
O=C(Cc1ccccc1F)Nc1ccnc(C(=O)NC23CCC(F)(C2)C3)c1 [Example 60, N-(4-Fluoro-1-bicyclo[2.1.1]hexanyl)-4-[[2-(2-fluorophenyl)acetyl]amino]pyridine-2-carboxamide]	126	350
CC(C)(C)NC(=O)c1cccc(NC(=O)Cc2ccccc2O)c1 [Example 4.3, N-tert-Butyl-3-[[2-(2-hydroxyphenyl)acetyl]amino] benzamide]	151	1530
CC(C)NC(=O)c1cc(NC(=O)Cc2cc(Cl)ccc2O)ccn1 [Example 7.7, 4-[[2-(5-Chloro-2-hydroxy-phenyl)acetyl]amino]-N-isopropyl-pyridine-2-carboxamide]	234	130
CC12CC(NC(=O)c3cc(NC(=O)Cc4ccccc4Cl)ccn3)(C1)C2 [Example 30.4, 4-[[2-(2-Chlorophenyl)acetyl]amino]-N-(1-methyl-3-bicyclo[1.1.1]pentanyl)pyridine-2-carboxamide]	95	750
C#CC(C)(C)NC(=O)c1cc(NC(=O)Cc2cc(C(F)(F)F)ccc2O)ccn1 [Example 78.2, N-(1,1-Dimethylprop-2-ynyl)-4-[[2-[2-hydroxy-5-(trifluoromethyl)phenyl]acetyl]amino]pyridine-2-carboxamide]	86	20
CC(C)(C)NC(=O)c1cc(NC(=O)Cc2cc(O)cc(Cl)c2)ccn1 [Example 3.17b, N-tert-Butyl-4-[[2-(3-chloro-5-hydroxy-phenyl)acetyl]amino]pyridine-2-carboxamide]	227	120
O=C(Cc1cc(Cl)ccc1O)Nc1cccc(C(=O)NC2(CO)CCOC2)c1 (centres unmarked) [Example 74.1, 3-[[2-(5-Chloro-2-hydroxy-phenyl)acetyl]amino]-N-[3-(hydroxymethyl)tetra hydrofuran-3-yl]benzamide]	49	
CC(C)(C)NC(=O)c1cc(NC(=O)NCC2CCCCC2)ccn1 [Example 64.1, N-tert-Butyl-4-(cyclohexylmethylcarbamoylamino)pyridine-2-carboxamide]	78	
CC(C)(C)NC(=O)c1cc(NC(=O)Cc2ccc(Cl)c(Cl)c2)ccn1 [Example 5.8, N-tert-Butyl-4-[[2-(3,4-dichlorophenyl)acetyl]amino]pyridine-2-carboxamide]	116	460
CC(C)(CCNS(C)(=O)=O)NC(=O)c1cc(NC(=O)Cc2cc(Cl)ccc2O)ccn1 [Example 50, 4-[[2-(5-Chloro-2-hydroxy-phenyl)acetyl]amino]-N-[3-(methanesulfonamido)-1,1-dimethyl-propyl]pyridine-2-carboxamide]	65	
